Values joined by “and” are separate entries in the source; they are usually repeats but may differ in a detail not shown here. Equal entries are not always repeated. Toxic doses and inconclusive results are not listed. Rule as the data show it: active = T/C of 150% or more; inactive = T/C below 125%.
Test system: L1210 leukemia ip in BDF1 mice, survival T/C
Assay: NCI In Vivo Anticancer Drug Screen. Data for tumor model L1210 Leukemia (intraperitoneal) in B6D2F1 (BDF1) mice
Conditions: endpoint: mean survival time, higher = longer survival
Outline: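 Survival endpoint. Drug-treated group vs vehicle group, expressed as T divided by C. Tumor passaged by transplantation.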

[1] = dose: 50.0 mg/kg/injection, schedule: Q01DX009 (ip), vehicle: Klucel (hydroxypropylcellulose) (HPC)
[2] = dose: 100.0 mg/kg/injection, schedule: Q01DX009 (ip), vehicle: Klucel (hydroxypropylcellulose) (HPC)
[3] = dose: 200.0 mg/kg/injection, schedule: Q01DX009 (ip), vehicle: Klucel (hydroxypropylcellulose) (HPC)
[4] = dose: 100.0 mg/kg/injection, schedule: Q04DX003 (ip), vehicle: Klucel (hydroxypropylcellulose) (HPC)
[5] = dose: 200.0 mg/kg/injection, schedule: Q04DX003 (ip), vehicle: Klucel (hydroxypropylcellulose) (HPC)
[6] = dose: 100.0 mg/kg/injection, schedule: Q04DX003 (ip), vehicle: saline
[7] = dose: 100.0 mg/kg/injection, schedule: Q01DX001 (sc), vehicle: steriod suspending solution
[8] = dose: 200.0 mg/kg/injection, schedule: Q01DX001 (sc), vehicle: steriod suspending solution
[9] = dose: 400.0 mg/kg/injection, schedule: Q01DX001 (sc), vehicle: steriod suspending solution
[10] = dose: 400.0 mg/kg/injection, schedule: Q01DX009 (ip), vehicle: Klucel (hydroxypropylcellulose) (HPC)
[11] = dose: 400.0 mg/kg/injection, schedule: Q04DX003 (ip), vehicle: Klucel (hydroxypropylcellulose) (HPC)
[12] = dose: 400.0 mg/kg/injection, schedule: Q04DX003 (ip), vehicle: saline
[13] = dose: 100.0 mg/kg/injection, schedule: Q04DX003 (ip), vehicle: saline with Tween-80
[14] = dose: 100.0 mg/kg/injection, schedule: Q01DX001 (ip), vehicle: carboxymethylcellulose (CMC)
[15] = dose: 200.0 mg/kg/injection, schedule: Q01DX001 (ip), vehicle: carboxymethylcellulose (CMC)
[16] = dose: 400.0 mg/kg/injection, schedule: Q01DX001 (ip), vehicle: carboxymethylcellulose (CMC)
[17] = dose: 100.0 mg/kg/injection, schedule: Q04DX002 (ip), vehicle: Klucel (hydroxypropylcellulose) (HPC)
[18] = dose: 200.0 mg/kg/injection, schedule: Q04DX002 (ip), vehicle: Klucel (hydroxypropylcellulose) (HPC)
[19] = dose: 400.0 mg/kg/injection, schedule: Q04DX002 (ip), vehicle: Klucel (hydroxypropylcellulose) (HPC)
[20] = dose: 100.0 mg/kg/injection, schedule: Q04DX003 (ip), vehicle: other
[21] = dose: 200.0 mg/kg/injection, schedule: Q04DX003 (ip), vehicle: other
[22] = dose: 400.0 mg/kg/injection, schedule: Q04DX003 (ip), vehicle: other
[23] = dose: 200.0 mg/kg/injection, schedule: Q04DX003 (ip), vehicle: saline
[24] = dose: 100.0 mg/kg/injection, schedule: Q01DX001 (ip), vehicle: saline
[25] = dose: 200.0 mg/kg/injection, schedule: Q01DX001 (ip), vehicle: saline
[26] = dose: 400.0 mg/kg/injection, schedule: Q01DX001 (ip), vehicle: saline
[27] = dose: 50.0 mg/kg/injection, schedule: Q01DX001 (ip), vehicle: saline

Measured: T/C

O=C(O)COc1c(Br)cc(Br)cc1Br
inactive: [1] 93 % of control | [2] 96 % of control | [3] 88 % of control

CCOC1c2cnc(C)n2C=CN1C(C)=O (configuration not stated)
inactive: dose: 50.0 mg/kg/injection, schedule: Q01DX009 (ip), vehicle: water 96 % of control | dose: 100.0 mg/kg/injection, schedule: Q01DX009 (ip), vehicle: water 94 % of control | dose: 100.0 mg/kg/injection, schedule: Q04DX003 (ip), vehicle: water 116 % of control | dose: 200.0 mg/kg/injection, schedule: Q04DX003 (ip), vehicle: water 115 % of control

CCCCCCCCCCCCCCCCCOc1ccc(I)cc1
inactive: [4] 91 % of control | [5] 91 % of control

CC[N+](C)(CC)CCOC(=O)c1ccccc1Oc1ccc(C)cc1
inactive: [6] 96 % of control

CSc1ncnc2c1ncn2CC(=O)[C@@]1(O)CC[C@H]2[C@@H]3CCC4=CC(=O)CC[C@]4(C)[C@H]3[C@@H](O)C[C@@]21C
inactive: [7] 99 % of control | [8] 100 % of control | [9] 100 % of control

CSc1ccc(NC(=O)Nc2cccc(C)n2)cc1
inactive: [2] 98 % of control | [4] 95 % of control | [3] 108 % of control | [5] 93 % of control | [10] 97 % of control | [11] 97 % of control

CC12CCC(O)CC1CCC1C2CCC2(C)C(c3ccc(=O)oc3)CC3OC312 (configuration not stated)
inactive: dose: 50.0 mg/kg/injection, schedule: Q01DX001 (sc), vehicle: steriod suspending solution 105 % of control | [7] 105 % of control | [8] 96 % of control | [9] 100 % of control

Oc1cncc2ccccc12
inactive: [6] 94 % of control | [12] 90 % of control

O=C(O)c1cccc(N2C(=O)C=CC2=O)c1
inactive: dose: 25.0 mg/kg/injection, schedule: Q04DX002 (ip), vehicle: Klucel (hydroxypropylcellulose) (HPC) 101 % of control | dose: 50.0 mg/kg/injection, schedule: Q04DX002 (ip), vehicle: Klucel (hydroxypropylcellulose) (HPC) 101 % of control

c1ccc(-c2oc3cc4c(cc3c2-c2ccc(OCCN3CCCC3)cc2)CCC4)cc1
inactive: [13] 90 % of control

Nc1ccc2c(c1)C(=NO)c1cc(N)ccc1-2
inactive: [14] 106 % of control | [15] 108 % of control

C[N+](C)(C)CCCN1c2ccccc2S(=O)c2ccc(Cl)cc21 (configuration not stated)
inactive: [14] 100 % of control | [15] 103 % of control | [16] 103 % of control

S=C(Cc1ccc2ccccc2c1)N1CCOCC1
inactive: dose: 25.0 mg/kg/injection, schedule: Q01DX009 (ip), vehicle: saline sonified 94 % of control | dose: 50.0 mg/kg/injection, schedule: Q01DX009 (ip), vehicle: saline sonified 100 % of control | dose: 100.0 mg/kg/injection, schedule: Q01DX001 (ip), vehicle: saline with Tween-80 105 % of control | dose: 100.0 mg/kg/injection, schedule: Q01DX009 (ip), vehicle: saline sonified 96 % of control

Cc1ccc(S(=O)(=O)ON/N=C2\C(=O)C3CCC2C3)cc1 (configuration not stated)
inactive: dose: 100.0 mg/kg/injection, schedule: Q04DX002 (ip), vehicle: saline with Tween-80 95 % of control

O=C(Nc1cccc(F)c1)Sc1ccc(Cl)cc1
inactive: dose: 25.0 mg/kg/injection, schedule: Q01DX009 (ip), vehicle: Klucel (hydroxypropylcellulose) (HPC) 98 % of control | [1] 108 % of control | [2] 105 % of control and 106 % of control and 112 % of control | [17] 95 % of control | [18] 98 % of control | [10] 86 % of control | [19] 109 % of control

CCOC(=O)COc1ccc(-c2ccccc2)cc1Br
inactive: [17] 104 % of control | [18] 104 % of control | [19] 104 % of control

CCCCOP(=O)(CSCC)OCCCC
inactive: [2] 98 % of control | [3] 90 % of control | [10] 93 % of control

CN(C)C(=S)SSC(=S)N(C)C
inactive: [1] 92 % of control | [2] 99 % of control | [20] 95 % of control | [21] 103 % of control | [22] 96 % of control

Cc1ccc(S(=O)(=O)OC2(C(=O)c3ccccc3)CC3CCC2C3)cc1 (configuration not stated)
inactive: dose: 50.0 mg/kg/injection, schedule: Q01DX001 (ip), vehicle: Klucel (hydroxypropylcellulose) (HPC) 93 % of control | dose: 100.0 mg/kg/injection, schedule: Q01DX001 (ip), vehicle: Klucel (hydroxypropylcellulose) (HPC) 96 % of control | dose: 200.0 mg/kg/injection, schedule: Q01DX001 (ip), vehicle: Klucel (hydroxypropylcellulose) (HPC) 94 % of control

CC(C)=COC(=N)C(N)=O
inactive: [20] 100 % of control | [21] 97 % of control | [22] 115 % of control

Cc1ccc[n+]2c1ccc1c3ccccc3ccc12
inactive: dose: 10.0 mg/kg/injection, schedule: Q01DX001 (ip), vehicle: saline 106 % of control

N#CC(c1ccccc1)N1CCCCC1 (configuration not stated)
inactive: [4] 101 % of control | [5] 107 % of control | [11] 91 % of control

OCC1OC(OCC2OC(OC3(CO)OC(CO)C(O)C3O)C(O)C(O)C2O)C(O)C(O)C1O (configuration not stated)
inactive: [6] 101 % of control | [23] 106 % of control | [12] 104 % of control

Oc1ccc(Cl)cc1N=Cc1ccccc1
inactive: [24] 100 % of control | [25] 105 % of control | [26] 107 % of control

CC/C(=C(\CC)c1ccc(OCCN(CC)CC)cc1)c1ccc(OCCN(CC)CC)cc1
inactive: dose: 5.0 mg/kg/injection, schedule: Q01DX001 (ip), vehicle: carboxymethylcellulose (CMC) 94 % of control | dose: 10.0 mg/kg/injection, schedule: Q01DX001 (ip), vehicle: carboxymethylcellulose (CMC) 96 % of control | dose: 40.0 mg/kg/injection, schedule: Q01DX001 (ip), vehicle: carboxymethylcellulose (CMC) 94 % of control | [14] 106 % of control

c1ccc2sc(SSc3nc4ccccc4s3)nc2c1
inactive: [27] 96 % of control | [24] 98 % of control | [2] 86 % of control | [4] 97 % of control | [25] 92 % of control | [3] 96 % of control | [5] 94 % of control | [26] 104 % of control | [10] 90 % of control | [11] 90 % of control

COc1cc(C(=O)C[n+]2ccccc2)ccc1O
inactive: [13] 93 % of control | dose: 200.0 mg/kg/injection, schedule: Q04DX003 (ip), vehicle: saline with Tween-80 93 % of control

CC1(O)C2CC3CC(C2)CC1C3 (configuration not stated)
inactive: [17] 113 % of control | [18] 98 % of control and 87 % of control | [19] 94 % of control

CCC[CH2][Sn]([CH2]C)([CH2]C)[O]C(C)=O
inactive: dose: 5.0 mg/kg/injection, schedule: Q01DX001 (ip), vehicle: saline with Tween-80 90 % of control | dose: 10.0 mg/kg/injection, schedule: Q01DX001 (ip), vehicle: saline with Tween-80 93 % of control

O=C(Nc1cc2c3ccccc3ccc2c2ccccc12)C(F)(F)F
inactive: [14] 91 % of control | [15] 92 % of control | [16] 97 % of control

COc1ccc(/C=C\C(=O)OCCCCOC(=O)/C=C/c2ccc(OC)cc2)cc1
inactive: [27] 95 % of control | [24] 95 % of control | [25] 95 % of control | [26] 95 % of control

OCC1(O)CCC1
inactive: dose: 100.0 mg/kg/injection, schedule: Q01DX009 (ip), vehicle: saline 102 % of control | [6] 94 % of control | dose: 200.0 mg/kg/injection, schedule: Q01DX009 (ip), vehicle: saline 99 % of control | [23] 103 % of control | dose: 400.0 mg/kg/injection, schedule: Q01DX009 (ip), vehicle: saline 107 % of control | [12] 96 % of control

CC(C)(C)NC(=O)/C=C\C(=O)O
inactive: dose: 100.0 mg/kg/injection, schedule: Q01DX009 (ip), vehicle: gum acacia 98 % of control | [4] 103 % of control | dose: 200.0 mg/kg/injection, schedule: Q01DX009 (ip), vehicle: gum acacia 95 % of control | [5] 105 % of control | dose: 400.0 mg/kg/injection, schedule: Q01DX009 (ip), vehicle: gum acacia 90 % of control | [11] 92 % of control
